In patent US20100016285A1, “HETEROCYCLIDENE-N-(ARYL) ACETAMIDE DERIVATIVE” (MOCHIDA PHARMACEUTICAL CO., LTD., priority 2007, published 2010):

Legend:
[1] = Effects on rectal temperature (8-1), oral administration to rats; type: in vivo, rat; details: oral single doses of 3, 10 and 30 mg/kg; 30, 60 and 120 minutes; maximum absolute difference vs vehicle
Description: (8-1) Effects on Rectal Temperature
A test compound was orally administered to rats at single doses of 3, 10 and 30 mg/kg. Then rectal temperature was measured 30, 60 and 120 minutes after administration.
Differences of the mean value between a group treated with test substance and a vehicle-treated group were calculated at all measuring points and, based on the maximum absolute value of differences, changes in rectal temperature were divided into the following three categories:
−: the maximum value was less than 0.5 degree Celsius +: the maximum value was more than 0.5 degree but less than 1.0 degree Celsius ++: the maximum value was more than 1.0 degree Celsius

human TRPV1 = target: T1, human TRPV1 (Homo sapiens, UniProt Q8NER1); assay: Capsaicin-induced Ca influx in transformed CHO cells, FDSS-6000 (b-1), A2 value; type: cell-based; details: concentration shifting the capsaicin concentration-reaction curve two times rightward; CHO cells expressing TRPV1
T1 construct: expressed in transfected cells; host or cells: CHO-K1 cells, pCAGGS vector, clones selected by limiting dilution
From the text: (1) Measurement of Capsaicin-Induced Ca Influx in a Transformed CHO Cell Line Expressing Human TRPV1
(a) Establishment of a Transformed CHO Cell Line Expressing Human and Rat TRPV1
Human and rat vanilloid receptor 1 (hTRPV1 and rTRPV1) cDNA was cloned from human brain and rat dorsal root ganglion, respectively. The cloned TRPV1 cDNA was incorporated in a pCAGGS vector. The vector was introduced to a CHO-K1 cell line, thus performing transformation. Clones obtained by limiting dilution were stimulated with capsaicin. Clones with a high responsiveness were selected using an increase in the Ca concentration as an indicator. The selected clones were used for the following experiment.
(b-1) Measurement of Ca Influx using FDSS-6000
The transformed CHO cells expressing human or rat TRPV1 were seeded in a 96-well plate (with black walls and transparent bottoms, manufactured by Greiner) at a density of 40,000 cells per well. The cells were cultured at 37° C. in 5% CO2 atmosphere for one night. A loading solution of FLIPR Calcium 3 assay kit (manufactured by Molecular Devices Corporation) containing 2.5 mmol/L of probenecid was then added to each of the wells in the same amount as the culture medium, and the cells were cultured at 37° C. for 60 minutes. For three minutes after the cells were stimulated with capsaicin (1 nmol/L to 1 μmol/L), the change of the intracellular Ca concentration was measured using FDSS-6000 (λex: 480 nm, λem: […], manufactured by Hamamatsu Photonics K.K.). The integrated values of the increase rate of the intracellular Ca concentration were calculated for a group treated with the compounds of the present invention and a group treated with a vehicle, thus allowing capsaicin concentration-reaction curves to be obtained. A concentration (A2 value) of each of the compounds of the present invention, at which the capsaicin concentration-reaction curve obtained when the cells were treated with the vehicle was shifted two times rightward, was calculated. The inhibitory effects of the test compounds were compared using this value as an indicator.

T1 sequence (Q8NER1 whole entry): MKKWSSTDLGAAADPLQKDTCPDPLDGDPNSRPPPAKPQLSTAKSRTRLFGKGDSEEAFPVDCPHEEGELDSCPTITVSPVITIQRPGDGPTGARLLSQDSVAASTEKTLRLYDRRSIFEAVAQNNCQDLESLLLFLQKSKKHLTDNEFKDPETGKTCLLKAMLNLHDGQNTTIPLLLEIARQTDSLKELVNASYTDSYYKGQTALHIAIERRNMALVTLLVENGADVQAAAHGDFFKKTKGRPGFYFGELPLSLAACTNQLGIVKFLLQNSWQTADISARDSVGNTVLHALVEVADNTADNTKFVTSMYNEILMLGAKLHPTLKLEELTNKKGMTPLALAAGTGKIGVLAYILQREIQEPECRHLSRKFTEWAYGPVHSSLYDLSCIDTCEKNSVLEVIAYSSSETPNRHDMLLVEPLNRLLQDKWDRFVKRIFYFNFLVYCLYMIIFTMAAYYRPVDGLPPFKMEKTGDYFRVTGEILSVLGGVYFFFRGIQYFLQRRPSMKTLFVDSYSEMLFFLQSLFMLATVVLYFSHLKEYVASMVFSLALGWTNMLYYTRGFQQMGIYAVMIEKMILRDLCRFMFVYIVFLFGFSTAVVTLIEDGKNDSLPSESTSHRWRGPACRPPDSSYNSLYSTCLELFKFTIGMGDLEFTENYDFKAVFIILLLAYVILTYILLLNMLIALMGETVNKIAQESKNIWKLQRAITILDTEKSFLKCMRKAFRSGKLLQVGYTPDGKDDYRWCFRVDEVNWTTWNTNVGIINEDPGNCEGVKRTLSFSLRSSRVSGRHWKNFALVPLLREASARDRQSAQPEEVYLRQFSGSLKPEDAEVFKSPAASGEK

Structure (SMILES)	Change in rectal temperature in rats [1]	A2 value (human TRPV1)
CC1(C)C/C(=C\C(=O)Nc2ccc3c(c2)NC(=O)C(N2CCOCC2)C3)c2ccc(C(F)(F)F)cc2O1 (single isomer, unassigned) [Example 213, (E)-2-(7-trifluoromethyl-2,2-dimethylchroman-4-ylidene)-N-(3-(4-morpholinyl)-3,4-dihydro-2(1H)-quinolinon-7-yl)acetamide]	− (the maximum value was less than 0.5 degree Celsius)	–
CN1Cc2ccc(NC(=O)/C=C3\CCCOc4cc(C(F)(F)F)ccc43)cc2NC1=O [EXAMPLE 14, (E)-2-(8-trifluoromethyl-3,4-dihydrobenzo[b]oxepin-5(2H)-ylidene)-N-(3-methyl-3,4-dihydro-2(1H)-quinazolinon-7-yl)acetamide]	− (the maximum value was less than 0.5 degree Celsius)	–
O=C(/C=C1\CCCOc2cc(C(F)(F)F)ccc21)Nc1ccc2c(c1)NC(=O)C(N1CCOCC1)C2 (stereo not shown) [EXAMPLE 30, (E)-2-(8-trifluoromethyl-3,4-dihydrobenzo[b]oxepin-5(2H)-ylidene)-N-(3-(4-morpholinyl)-3,4-dihydro-2(1H)-quinolinon-7-yl)acetamide]	− (the maximum value was less than 0.5 degree Celsius)	–
O=C(/C=C1\CCCOc2cc(C(F)(F)F)ccc21)Nc1ccc2c(c1)NC(=O)C(N1CC[C@@H](O)C1)C2 (stereo partly drawn) [EXAMPLE 48, (E)-2-(8-trifluoromethyl-3,4-dihydrobenzo[b]oxepin-5(2H)-ylidene)-N-(3-((3S)-hydroxypyrrolidin-1-yl)-3,4-dihydro-2(1H)-quinolinon-7-yl)acetamide]	–	A (A2 value of less than 100 nM)
O=C(/C=C1\CCCOc2cc(C(F)(F)F)ccc21)Nc1ccc2c(c1)NC(=O)C(N1CCNCC1)C2 (stereo not shown) [EXAMPLE 52, (E)-2-(8-trifluoromethyl-3,4-dihydrobenzo[b]oxepin-5(2H)-ylidene)-N-(3-(1-piperazinyl)-3,4-dihydro-2(1H)-quinolinon-7-yl)acetamide]	–	B (A2 value of 100 nM or more)
O=C(/C=C1\CCCOc2cc(C(F)(F)F)ccc21)Nc1ccc2c(c1)NC(=O)C(N1CCCOCC1)C2 (stereo not shown) [EXAMPLE 53, (E)-2-(8-trifluoromethyl-3,4-dihydrobenzo[b]oxepin-5(2H)-ylidene)-N-(3-([1,4]oxazepan-4-yl)-3,4-dihydro-2(1H)-quinolinon-7-yl)acetamide]	–	A (A2 value of less than 100 nM)
O=C(/C=C1\CCCOc2cc(C(F)(F)F)ccc21)Nc1ccc2c(c1)NC(=O)C(N1CCSCC1)C2 (stereo not shown) [EXAMPLE 54, (E)-2-(B-trifluoromethyl-3,4-dihydrobenzo[b]oxepin-5(2H)-ylidene)-N-(3-(4-thiomorpholinyl)-3,4-dihydro-2(1H)-quinolinon-7-yl)acetamide]	–	A (A2 value of less than 100 nM)
COC1CCN(C2Cc3ccc(NC(=O)/C=C4\CCCOc5cc(C(F)(F)F)ccc54)cc3NC2=O)CC1 (stereo not shown) [EXAMPLE 55, (E)-2-(8-trifluoromethyl-3,4-dihydrobenzo[b]oxepin-5(2H)-ylidene)-N-(3-(4-methoxy-1-piperidinyl)-3,4-dihydro-2(1H)-quinolinon-7-yl)acetamide]	–	A (A2 value of less than 100 nM)
CO[C@@H]1CCN(C2Cc3ccc(NC(=O)/C=C4\CCCOc5cc(C(F)(F)F)ccc54)cc3NC2=O)C1 (stereo partly drawn) [EXAMPLE 56, (E)-2-(8-trifluoromethyl-3,4-dihydrobenzo[b]oxepin-5(2H)-ylidene)-N-(3-((3S)-methoxypyrrolidin-1-yl)-3,4-dihydro-2(1H)-quinolinon-7-yl)acetamide]	–	A (A2 value of less than 100 nM)
CN(C1CCOCC1)C1Cc2ccc(NC(=O)/C=C3\CCCOc4cc(C(F)(F)F)ccc43)cc2NC1=O (stereo not shown) [EXAMPLE 57, (E)-2-(8-trifluoromethyl-3,4-dihydrobenzo[b]oxepin-5(2H)-ylidene)-N-(3-(N-methyl-N-(4-tetrahydropyranyl)amino)-3,4-dihydro-2(1H)-quinolinon-7-yl)acetamide]	–	B (A2 value of 100 nM or more)
CC1(C)Oc2ccc(NC(=O)/C=C3\CCCOc4cc(C(F)(F)F)ccc43)cc2NC1=O [Example 1, (E)-2-(8-trifluoromethyl-3,4-dihydrobenzo[b]oxepin-5(2H)-ylidene)-N-(2,2-dimethyl-4H-benzo[1,4]oxazin-3-on-6-yl)acetamide]	–	A (A2 value of less than 100 nM)
CC1Oc2ccc(NC(=O)/C=C3\CCCOc4cc(C(F)(F)F)ccc43)cc2NC1=O (stereo not shown) [Example 2, (E)-2-(8-trifluoromethyl-3,4-dihydrobenzo[b]oxepin-5(2H)-ylidene)-N-(2-methyl-4H-benzo[1,4]oxazin-3-on-6-yl)acetamide]	–	A (A2 value of less than 100 nM)
O=C(/C=C1\CCCOc2cc(C(F)(F)F)ccc21)Nc1ccc2c(c1)NC(=O)C(CCO)O2 (stereo not shown) [Example 3, (E)-2-(8-trifluoromethyl-3,4-dihydrobenzo[b]oxepin-5(2H)-ylidene)-N-(2-(2-hydroxyethyl)-4H-benzo[1,4]oxazin-3-on-6-yl)acetamide]	–	A (A2 value of less than 100 nM)
O=C(/C=C1\CCCOc2cc(C(F)(F)F)ccc21)Nc1ccc2c(c1)NC(=O)CS2 [Example 4, (E)-2-(8-trifluoromethyl-3,4-dihydrobenzo[b]oxepin-5(2H)-ylidene)-N-(2H-benzo[1,4]thiazin-3(4H)-on-6-yl)acetamide]	–	A (A2 value of less than 100 nM)
O=C(/C=C1\CCCOc2cc(C(F)(F)F)ccc21)Nc1ccc2c(c1)NC(=O)C[S+]2[O-] (stereo not shown) [Example 5, (E)-2-(B-trifluoromethyl-3,4-dihydrobenzo[b]oxepin-5(2H)-ylidene)-N-(1-oxo-2H-benzo[1,4]thiazin-3(4H)-on-6-yl)acetamide]	–	B (A2 value of 100 nM or more)
O=C(/C=C1\CCCOc2cc(C(F)(F)F)ccc21)Nc1ccc2c(c1)NC(=O)CN2 [Example 7, (E)-2-(8-trifluoromethyl-3,4-dihydrobenzo[b]oxepin-5(2H)-ylidene)-N-(3,4-dihydro-2(1H)-quinoxalinon-7-yl)acetamide]	–	A (A2 value of less than 100 nM)
O=C(/C=C1\CCCOc2cc(C(F)(F)F)ccc21)Nc1ccc2cc(N3CCOCC3)c(=O)[nH]c2c1 [Example 58, (E)-2-(8-trifluoromethyl-3,4-dihydrobenzo[b]oxepin-5(2H)-ylidene)-N-(3-(4-morpholinyl)-2(1H)-quinolinon-7-yl)acetamide]	–	A (A2 value of less than 100 nM)
O=C(/C=C1\CCCOc2cc(C(F)(F)F)ccc21)Nc1ccc2c(c1)NS(=O)(=O)CC2 [Example 59, (E)-2-(8-trifluoromethyl-3,4-dihydrobenzo[b]oxepin-5(2H)-ylidene)-N-(2,2-dioxo-3,4-dihydro-(1H)-2,1-benzothiazin-7-yl)acetamide]	–	A (A2 value of less than 100 nM)
O=C(/C=C1\CCCOc2cc(C(F)(F)F)ccc21)Nc1ccc2cc(CO)c(=O)[nH]c2c1 [Example 93, (E)-2-(8-trifluoromethyl-3,4-dihydrobenzo[b]oxepin-5(2H)-ylidene)-N-(3-hydroxymethyl-2(1H)-quinolinon-7-yl)acetamide]	− (the maximum value was less than 0.5 degree Celsius)	–
CC1(C)C/C(=C\C(=O)Nc2ccc3c(c2)NC(=O)C3(C)C)c2ccc(C(F)(F)F)cc2O1 [Example 109, (E)-2-(7-trifluoromethyl-2,2-dimethylchroman-4-ylidene)-N-(3,3-dimethyl-2(1H)-indolinon-6-yl)acetamide]	− (the maximum value was less than 0.5 degree Celsius)	–
CC1(C)C(=O)Nc2cc(NC(=O)/C=C3\CC4(CCC4)Oc4cc(C(F)(F)F)ccc43)ccc21 [Example 110, (E)-2-(7-trifluoromethyl-spiro[chroman-2,1′-cyclobutane]-4-ylidene)-N-(3,3-dimethyl-2(1H)-indolinon-6-yl)acetamide]	− (the maximum value was less than 0.5 degree Celsius)	–
O=C(/C=C1\CCCOc2cc(C(F)(F)F)ccc21)Nc1cccc2c1CCC(=O)N2 [compound 18, (E)-2-(8-trifluoromethyl-3,4-dihydrobenzo[b]oxepin-5(2H)-ylidene)-N-(3,4-dihydro-2(1H)-quinolinon-5-yl)acetamide]	–	A (A2 value of less than 100 nM)
